{"source": "patent US9695155B2", "about": "“Herbicidal substituted pyrimidinyloxy benzene compounds” (E. I. DU PONT DE NEMOURS AND COMPANY, priority 2013, dated 2017)", "key": {"barnyardgrass [1]": {"test_system": "barnyardgrass", "experiment": "Test B flooded paddy test", "assay_type": "in vivo, Echinochloa crus-galli", "details": "Echinochloa crus-galli; Flood, 250 g ai/ha; 0 to 100 scale where 0 is no effect and 100 is complete control; read-out: Plant response rating, Barnyardgrass", "summary_of_the_method": "(§1)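 Evaluation is visual, against untreated controls, 13 to 15 days after treatment. Before treatment, plants reached the 2-leaf stage; pots were then flooded 3 cm deep, compound was added to the water, and that level was maintained. Ratings run 0 to 100, with 100 meaning complete control.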"}, "corn": {"test_system": "corn", "experiment": "Test C preemergence", "assay_type": "in vivo, Zea mays", "details": "Zea mays, pre-emergence", "summary_of_the_method": "(§2)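 Plants were kept under greenhouse conditions for 13–15 days following spray. Pre-emergent application went to soil (loam–sand), post-emergent to foliage at 1–4 leaves. Evaluation: visual, percent control against untreated checks.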"}, "yellow nutsedge": {"test_system": "yellow nutsedge", "experiment": "Test C postemergence", "assay_type": "in vivo, Cyperus esculentus", "details": "Cyperus, post-emergence", "summary_of_the_method": "as §2"}, "velvetleaf": {"test_system": "velvetleaf", "experiment": "Test C postemergence", "assay_type": "in vivo, Abutilon theophrasti", "details": "Abutilon theophrasti, post-emergence", "summary_of_the_method": "as §2"}, "waterhemp": {"test_system": "waterhemp", "experiment": "Test C postemergence", "assay_type": "in vivo, Amaranthus rudis", "details": "Amaranthus tuberculatus, post-emergence", "summary_of_the_method": "as §2"}, "johnsongrass": {"test_system": "johnsongrass", "experiment": "Test C postemergence", "assay_type": "in vivo, Sorghum halepense", "details": "Sorghum halepense, post-emergence", "summary_of_the_method": "as §2"}, "Italian ryegrass": {"test_system": "Italian ryegrass", "experiment": "Test C postemergence", "assay_type": "in vivo, Lolium multiflorum", "details": "Lolium multiflorum, post-emergence", "summary_of_the_method": "as §2"}, "pigweed": {"test_system": "pigweed", "experiment": "Test C postemergence", "assay_type": "in vivo, Amaranthus retroflexus", "details": "Amaranthus retroflexus, post-emergence", "summary_of_the_method": "as §2"}, "sedge, umbrella": {"test_system": "sedge, umbrella", "experiment": "Test B flooded paddy test", "assay_type": "in vivo, Cyperus difformis", "details": "Cyperus difformis, Flood, 250 g ai/ha; 0 to 100 scale where 0 is no effect and 100 is complete control; read-out: Plant response rating, Sedge, Umbrella", "summary_of_the_method": "as §1"}, "barnyardgrass [2]": {"test_system": "barnyardgrass", "experiment": "Test A postemergence", "assay_type": "in vivo, Echinochloa crus-galli", "details": "Echinochloa crus-galli, post-emergence, 240 h, 0 to 100 scale where 0 is no effect and 100 is complete control", "summary_of_the_method": "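Compounds in non-phytotoxic solvent with surfactant applied as soil spray preemergence, or postemergence to plants 2-10 cm at one- to two-leaf stage, in loam/sand. After approximately 10 days in greenhouse, injury rated visually versus untreated controls, 0 (no effect) to 100 (complete control).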"}, "barnyardgrass [3]": {"test_system": "barnyardgrass", "experiment": "Test C postemergence", "assay_type": "in vivo, Echinochloa crus-galli", "details": "Echinochloa crus-galli, post-emergence", "summary_of_the_method": "as §2"}, "wild oat": {"test_system": "wild oat", "experiment": "Test C postemergence", "assay_type": "in vivo, Avena fatua", "details": "Avena fatua, post-emergence", "summary_of_the_method": "as §2"}, "giant foxtail": {"test_system": "giant foxtail", "experiment": "Test C preemergence", "assay_type": "in vivo, Setaria faberii", "details": "Setaria faberi, pre-emergence", "summary_of_the_method": "as §2"}}}
{"compound": "FC(F)(F)Sc1cnn(-c2ccccc2Oc2ncc(Cl)cn2)c1", "note": "[Compound 132, 5-chloro-2-[2-[4-(trifluoromethylthio)-1H-pyrazol-1-yl]phenoxy]pyrimidine]", "values": [{"measurement": "pest or weed control at 250 g/ha", "setting": "barnyardgrass [1]", "value": 0, "unit": "%"}, {"measurement": "plant injury at 16 g/ha", "setting": "corn; 16 g ai/ha, preemergence, scale 0 to 100 (0 no effect, 100 complete control), read-out: Corn plant response rating", "value": 0, "unit": "%"}, {"measurement": "plant injury at 62 g/ha", "setting": "corn; 62 g ai/ha, preemergence, scale 0 (no effect) to 100 (complete control), read-out: Corn plant response rating", "value": 20, "unit": "%"}, {"measurement": "plant injury at 125 g/ha", "setting": "corn; 125 g ai/ha, preemergence, scale 0 (no effect) to 100 (complete control), read-out: Corn plant response rating", "value": 35, "unit": "%"}, {"measurement": "Corn plant response rating (crop injury, 0 = no effect, 100 = complete kill) at 31 g/ha", "setting": "corn; Preemergence, 31 g ai/ha, scale 0 to 100, 0 no effect, 100 complete control", "value": 10, "unit": "%"}, {"measurement": "pest or weed control at 16 g/ha", "setting": "yellow nutsedge; 16 g ai/ha, postemergence, 0 is no effect, 100 is complete control, read-out: Plant response rating (0 to 100), Nutsedge, Yellow", "value": 0, "unit": "%"}, {"measurement": "pest or weed control at 125 g/ha", "setting": "yellow nutsedge; 125 g ai/ha, postemergence, visual rating, scale 0 to 100 (0 no effect, 100 complete control), read-out: Plant response rating, Nutsedge, Yellow", "value": 10, "unit": "%"}, {"measurement": "pest or weed control at 62 g/ha", "setting": "yellow nutsedge; Postemergence, 62 g ai/ha, scale 0 to 100 (0 no effect, 100 complete control), read-out: Plant response rating, Nutsedge, Yellow", "value": 0, "unit": "%"}, {"measurement": "pest or weed control at 16 g/ha", "setting": "velvetleaf; 16 g ai/ha, postemergence, 0 is no effect, 100 is complete control, read-out: Plant response rating (0 to 100), Velvetleaf", "value": 5, "unit": "%"}, {"measurement": "pest or weed control at 125 g/ha", "setting": "velvetleaf; 125 g ai/ha, postemergence, visual rating, scale 0 to 100 (0 no effect, 100 complete control), read-out: Plant response rating, Velvetleaf", "value": 45, "unit": "%"}, {"measurement": "pest or weed control at 62 g/ha", "setting": "velvetleaf; Postemergence, 62 g ai/ha, scale 0 to 100 (0 no effect, 100 complete control), read-out: Plant response rating, Velvetleaf", "value": 40, "unit": "%"}, {"measurement": "pest or weed control at 16 g/ha", "setting": "waterhemp; 16 g ai/ha, postemergence, 0 is no effect, 100 is complete control, read-out: Plant response rating (0 to 100), Waterhemp", "value": 45, "unit": "%"}, {"measurement": "pest or weed control at 125 g/ha", "setting": "waterhemp; 125 g ai/ha, postemergence, visual rating, scale 0 to 100 (0 no effect, 100 complete control), read-out: Plant response rating, Waterhemp", "value": 75, "unit": "%"}, {"measurement": "pest or weed control at 62 g/ha", "setting": "waterhemp; Postemergence, 62 g ai/ha, scale 0 to 100 (0 no effect, 100 complete control), read-out: Plant response rating, Waterhemp", "value": 65, "unit": "%"}, {"measurement": "pest or weed control at 16 g/ha", "setting": "johnsongrass; 16 g ai/ha, postemergence, 0 is no effect, 100 is complete control, read-out: Plant response rating (0 to 100), Johnsongrass", "value": 5, "unit": "%"}, {"measurement": "pest or weed control at 125 g/ha", "setting": "johnsongrass; 125 g ai/ha, postemergence, visual rating, scale 0 to 100 (0 no effect, 100 complete control), read-out: Plant response rating, Johnsongrass", "value": 5, "unit": "%"}, {"measurement": "pest or weed control at 62 g/ha", "setting": "johnsongrass; Postemergence, 62 g ai/ha, scale 0 to 100 (0 no effect, 100 complete control), read-out: Plant response rating, Johnsongrass", "value": 5, "unit": "%"}, {"measurement": "pest or weed control at 16 g/ha", "setting": "Italian ryegrass; 16 g ai/ha, postemergence, 0 is no effect, 100 is complete control, read-out: Plant response rating (0 to 100), Ryegrass, Italian", "value": 0, "unit": "%"}, {"measurement": "pest or weed control at 125 g/ha", "setting": "Italian ryegrass; 125 g ai/ha, postemergence, visual rating, scale 0 to 100 (0 no effect, 100 complete control), read-out: Plant response rating, Ryegrass, Italian", "value": 5, "unit": "%"}, {"measurement": "pest or weed control at 62 g/ha", "setting": "Italian ryegrass; Postemergence, 62 g ai/ha, scale 0 to 100 (0 no effect, 100 complete control), read-out: Plant response rating, Ryegrass, Italian", "value": 5, "unit": "%"}, {"measurement": "pest or weed control at 16 g/ha", "setting": "pigweed; 16 g ai/ha, postemergence, 0 is no effect, 100 is complete control, read-out: Plant response rating (0 to 100), Pigweed", "value": 25, "unit": "%"}, {"measurement": "pest or weed control at 125 g/ha", "setting": "pigweed; 125 g ai/ha, postemergence, visual rating, scale 0 to 100 (0 no effect, 100 complete control), read-out: Plant response rating, Pigweed", "value": 80, "unit": "%"}, {"measurement": "pest or weed control at 62 g/ha", "setting": "pigweed; Postemergence, 62 g ai/ha, scale 0 to 100 (0 no effect, 100 complete control), read-out: Plant response rating, Pigweed", "value": 75, "unit": "%"}, {"measurement": "pest or weed control at 250 g/ha", "setting": "sedge, umbrella", "value": 0, "unit": "%"}, {"measurement": "pest or weed control at 125 g/ha", "setting": "barnyardgrass [2]; 125 g ai/ha, read-out: Barnyardgrass plant response rating", "value": 50, "unit": "%"}, {"measurement": "pest or weed control at 500 g/ha", "setting": "barnyardgrass [2]; 500 g ai/ha, read-out: Plant response rating, Barnyardgrass", "value": 70, "unit": "%"}, {"measurement": "pest or weed control at 16 g/ha", "setting": "barnyardgrass [3]; 16 g ai/ha, postemergence, 0 is no effect, 100 is complete control, read-out: Plant response rating (0 to 100), Barnyardgrass", "value": 0, "unit": "%"}, {"measurement": "pest or weed control at 125 g/ha", "setting": "barnyardgrass [3]; 125 g ai/ha, postemergence, visual rating, scale 0 to 100 (0 no effect, 100 complete control), read-out: Plant response rating, Barnyardgrass", "value": 5, "unit": "%"}, {"measurement": "pest or weed control at 31 g/ha", "setting": "barnyardgrass [3]; Postemergence, 31 g ai/ha, scale 0 to 100 (0 no effect, 100 complete control), 13 to 15 days, read-out: Plant response rating, Barnyardgrass", "value": 0, "unit": "%"}, {"measurement": "pest or weed control at 62 g/ha", "setting": "barnyardgrass [3]; Postemergence, 62 g ai/ha, scale 0 to 100 (0 no effect, 100 complete control), read-out: Plant response rating, Barnyardgrass", "value": 5, "unit": "%"}, {"measurement": "pest or weed control at 16 g/ha", "setting": "wild oat; 16 g ai/ha, postemergence, 0 is no effect, 100 is complete control, read-out: Plant response rating (0 to 100), Oat, Wild", "value": 0, "unit": "%"}, {"measurement": "pest or weed control at 125 g/ha", "setting": "wild oat; 125 g ai/ha, postemergence, visual rating, scale 0 to 100 (0 no effect, 100 complete control), read-out: Plant response rating, Oat, Wild", "value": 5, "unit": "%"}, {"measurement": "pest or weed control at 62 g/ha", "setting": "wild oat; Postemergence, 62 g ai/ha, scale 0 to 100 (0 no effect, 100 complete control), read-out: Plant response rating, Oat, Wild", "value": 5, "unit": "%"}, {"measurement": "pest or weed control at 16 g/ha", "setting": "giant foxtail; 16 g ai/ha, preemergence, scale 0 to 100 (0 no effect, 100 complete control), read-out: Foxtail, Giant plant response rating", "value": 5, "unit": "%"}, {"measurement": "pest or weed control at 62 g/ha", "setting": "giant foxtail; 62 g ai/ha, preemergence, scale 0 (no effect) to 100 (complete control), read-out: Foxtail, Giant plant response rating", "value": 70, "unit": "%"}, {"measurement": "pest or weed control at 125 g/ha", "setting": "giant foxtail; 125 g ai/ha, preemergence, scale 0 (no effect) to 100 (complete control), read-out: Foxtail, Giant plant response rating", "value": 98, "unit": "%"}, {"measurement": "pest or weed control at 31 g/ha", "setting": "giant foxtail; Preemergence, 31 g ai/ha, scale 0 to 100, 0 no effect, 100 complete control, read-out: Plant response rating, Foxtail, Giant", "value": 55, "unit": "%"}]}
